Experimental data from patent US20050171012A1, “Preventives/remedies for bone/joint diseases” (TAKEDA CHEMICAL INDUSTRIES, LTD., priority 2001, published 2005).

Assays:
[1] = target: T1, human DIO2 (Homo sapiens, UniProt Q92813); assay: Thyroid hormone deiodinase activity (T3 production from T4, T3 RIA) in disrupted COS-7 cells with DIO2 expression plasmid pTB2249; type: biochemical; settings: FIG. 4c
T1 construct: expressed in transfected cells; host or cells: COS-7 cells, transiently transfected with pTB2249 (pcDNA3.1 backbone), sonicated to disrupted cells
T1 sequence (Q92813 1-273): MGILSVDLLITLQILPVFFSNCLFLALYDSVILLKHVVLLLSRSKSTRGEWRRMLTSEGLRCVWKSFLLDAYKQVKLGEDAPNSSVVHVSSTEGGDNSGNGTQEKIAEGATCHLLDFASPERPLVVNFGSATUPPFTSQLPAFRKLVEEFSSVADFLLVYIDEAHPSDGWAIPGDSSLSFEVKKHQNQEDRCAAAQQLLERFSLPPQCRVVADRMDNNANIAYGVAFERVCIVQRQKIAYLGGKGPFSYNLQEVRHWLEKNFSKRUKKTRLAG
From the text: (§1) Using human thyroid-derived cDNA (Marathon Ready cDNA; Clontech) as a template, the following sequences were amplified by PCR: the amino acid coding sequence (cds) of human DIO1 (type 1 thyroid hormone deiodinase) using primer 1 (SEQ ID NO: 17) and primer 2 (SEQ ID NO: 18); DIO1 selenocystein insertion sequence (SECIS) using primer 3 (SEQ ID NO: 19) and primer 4 (SEQ ID NO: 20); human DIO2 cds using primer 5 (SEQ ID NO: 21) and primer 6 (SEQ ID NO: 22); and DIO2 SECIS (Buettner et al., 1998) using primer 7 (SEQ ID NO: 23) and primer 8 (SEQ ID NO: 24).
(§2) The resultant DNAs for human DIO1 cds and human DIO2 cds were inserted into pcDNA3.1 (Invitrogen) individually to thereby obtain plasmids pTB2240 and pTB2242. Further, the resultant DNAs for human DIO1 SECIS and human DIO2 SECIS were inserted into pCR2.1 (Invitrogen) individually to thereby obtain plasmids pTB2241 and pTB2244. DIO1 SECIS and DIO2 SECIS were cut out with restriction enzymes Sca I and Not I (Takara Shuzo) and introduced into DIO1 or DIO2 coding sequence-inserted plasmid pretreated with restriction enzymes Eco RV and Not I (Takara Shuzo) to thereby construct DIO1 expression plasmid pTB2248 and DIO2 expression plasmid pTB2249.
(§3) COS-7 cells (3×10^5) were plated in 6 cm petri dishes. […]

[2] = target: human DIO1 (type 1 thyroid hormone deiodinase) (Homo sapiens, UniProt P49895); settings: 1 mM PTU, T4 concentration 5 μM, 37° C. one hour; FIG. 4b
From the text: as §1, §2, §3

[3] = test system: Normal human articular chondrocytes of knee (NHAC-kn); assay: Induction of MMP13 gene expression in normal human articular chondrocytes of knee by T3; type: cell-based; settings: NHAC-kn cells, 0.1-10 nM T3, 6 days; FIG. 3
Method: Normal human articular chondrocytes of knee (NHAC-kn; Clonetics) were plated on gelatin-coated 96-well plates (Iwaki) at 2×10^5 cells/well and cultured in DMEM high glucose medium (Gibco) containing 1 μg/ml insulin, 1 μg/ml transferin, 1 ng/ml selenious acid (these components were contained in ITS; BD Bioscience) and 1 mg/ml BSA, and supplemented with 5 mM β-glycerophosphate (Sigma), 50 μg/ml ascorbic acid phosphate magnesium salt n-hydrate (Wako) and, if necessary, 0.1-10 nM T3 (triiodothyronine) (Sigma), in a CO2 incubator under 5% CO2 at 37° C. After 6 days, RNA was extracted from cells using RNeasy (Qiagen) according to the attached protocol. Using the total RNA as a template, cDNA was synthesized from random primers with TaqManreverse transcription reagent (Applied Biosystems). Subsequently, 2 μl of the reaction solution containing cDNA was mixed with a 2 μl reaction solution containing 0.34 μM of two primers (SEQ ID NO: 15 and SEQ ID NO: 16) and 1×PCR Master Mix (Applied Biosystems) and subjected to PCR. […]
The PCR was performed with ABI7700 sequence detector (Applied Biosystems). The number of copies of MMP13 cDNA was measured by real-time monitoring the amount of the PCR product. The number of copies of β-actin cDNA was also measured in the same manner using TaqMan β-actin control reagent (Applied Biosystems) and used as internal standard. […]

[4] = test system: Normal human articular chondrocytes of knee (NHAC-kn); assay: Induction of alkaline phosphatase activity in normal human articular chondrocytes of knee by T3; type: cell-based; settings: NHAC-kn cells, 0.05-50 nM T3, 6 days; FIG. 2
Method: Normal human articular chondrocytes of knee (NHAC-kn; Clonetics) were plated on gelatin-coated 24-well plates (Iwaki) at 2×10^5 cells/well and cultured in DMEM high glucose medium (Gibco) containing 1 μg/ml insulin, 1 μg/ml transferin, 1 ng/ml selenious acid (these components were contained in ITS; BD Bioscience), 1 mg/ml BSA, 50 μg/ml ascorbic acid phosphate magnesium salt n-hydrate (Wako) and 5 mM β-glycerophosphate in a CO2 incubator under 5% CO2 at 37° C. with addition of 0.05-50 nM T3 (triiodothyronine) (Sigma) if necessary. After 6 days, the culture broth was removed from cells and 200 μl of 10 mM Tris-HCl (pH 7.4) containing 0.1% Triton X-100 was added to each well. Then, cells were shaken at 4° C. for 1 hour on a horizontal shaker to thereby extract proteins from the cell layer. The alkaline phosphatase (AP) activity of the extract was determined from the yield of p-nitrophenol using p-nitrophenylphosphate as a substrate (Sigma). The protein content in the extract was measured with BCA protein assay reagent (Pierce) to thereby calculate the AP activity per a specific amount of protein.

Chain of human DIO1 (type 1 thyroid hormone deiodinase) (P49895 whole entry): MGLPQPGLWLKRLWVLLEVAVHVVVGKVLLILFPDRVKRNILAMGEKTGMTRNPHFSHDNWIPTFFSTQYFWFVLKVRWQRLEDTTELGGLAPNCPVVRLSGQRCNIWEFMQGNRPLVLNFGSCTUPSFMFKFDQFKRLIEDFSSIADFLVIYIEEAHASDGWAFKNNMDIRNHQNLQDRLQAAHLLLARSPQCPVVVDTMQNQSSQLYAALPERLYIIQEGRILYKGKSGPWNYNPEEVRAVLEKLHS

In the case of CCCc1cc(=O)[nH]c(=S)[nH]1 [PTU, propylthiouracil], the “influence on DIO2 activity of pTB2249 (T3 production)” value ([1]; 1 mM PTU, 37° C. one hour) is reported as “influenced little” and the “inhibition of DIO1 activity (T3 production)” value [2] is reported as “completely inhibited”.
With N[C@@H](Cc1cc(I)c(Oc2ccc(O)c(I)c2)c(I)c1)C(=O)O [T3, triiodothyronine] the “mRNA of MMP13 (number of copies of MMP13 cDNA normalized with β-actin)” value [3] was “induced in a T3 concentration-dependent manner” and the “alkaline phosphatase (AP) activity of cell layer extract per amount of protein” value [4] was “induced in a T3 concentration-dependent manner”.
In the case of N[C@@H](Cc1ccc(Oc2cc(I)c(O)c(I)c2)c(I)c1)C(=O)O [rT3, riverse triiodothyronine], the “inhibition of DIO2 activity of pTB2249 (T3 production)” value ([1]; rT3 5 μM, competition with T4, 37° C. one hour) is reported as “partially inhibited”.
